8 molecules from ChEMBL document CHEMBL3621176, “Inhibitors of the Renal Outer Medullary Potassium Channel” (ACS Med Chem Lett, 2015) can be followed below.

For the test, the target named is T1, ATP-sensitive inward rectifier potassium channel 1 (Homo sapiens, UniProt P48048).
T1 sequence (P48048 whole entry): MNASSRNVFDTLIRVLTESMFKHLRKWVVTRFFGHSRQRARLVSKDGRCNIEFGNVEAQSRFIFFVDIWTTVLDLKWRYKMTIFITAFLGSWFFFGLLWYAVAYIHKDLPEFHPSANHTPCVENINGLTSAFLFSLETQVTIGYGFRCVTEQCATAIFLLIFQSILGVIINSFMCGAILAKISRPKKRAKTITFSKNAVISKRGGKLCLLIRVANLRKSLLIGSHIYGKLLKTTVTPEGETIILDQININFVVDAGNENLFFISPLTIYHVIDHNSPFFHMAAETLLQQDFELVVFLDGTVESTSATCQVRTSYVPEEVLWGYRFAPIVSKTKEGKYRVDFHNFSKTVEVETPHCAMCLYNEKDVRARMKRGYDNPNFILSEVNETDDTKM
Briefly: Inhibition of human Kir1.1 expressed in HEK293 cells by thallium flux assay. The test is classed as cell-based.
Turning to `Cc1c([C@@H](O)CN2CCC3(CC2)CCN(c2ccc(C#N)nn2)CC3)ccc2c1COC2=O`, the IC50 (commonly the point on the concentration scale where inhibition reaches its midpoint) stood at 13 nM.

`Cc1nc(N2CCC3(CCN(C[C@H](O)c4ccc5c(c4C)COC5=O)CC3)C2)ccc1C#N` gave an IC50 of 14 nM.

In turn, `Cc1c([C@@H](O)CN2CCC3(CC2)CCN(c2cnc(C#N)cn2)CC3)ccc2c1COC2=O` showed an IC50 of 9 nM.

For `Cc1c([C@@H](O)CN2CCC3(CC2)CCN(c2ccc(C#N)cc2)C3)ccc2c1COC2=O`, the half-maximal inhibitory concentration (IC50) stood at 15 nM.

Molecule `Cc1c([C@@H](O)CN2CCC3(CC2)CCN(c2ncc(C#N)cn2)CC3)ccc2c1COC2=O` yielded an IC50 of 14 nM.

For the molecule `Cc1cc(N2CCC3(CCN(C[C@H](O)c4ccc5c(c4C)COC5=O)CC3)C2)ncc1C#N`, it took 17 nM to reach half-maximal inhibition (IC50).

As to `Cc1c([C@@H](N)CN2CCC3(CC2)CC(=O)N(c2ccc(C#N)cn2)C3)ccc2c1COC2=O`, 14 nM corresponded to half-maximal inhibition (IC50).

On to `Cc1cc(C#N)cnc1N1CCC2(CCN(C[C@H](O)c3ccc4c(c3C)COC4=O)CC2)C1`, for which it took 20 nM to reach half-maximal inhibition (IC50). This IC50 and that of the molecule before are within 1.5-fold of each other.
